The values below come from ChEMBL document CHEMBL3045528, “Development of a Novel Fungicide, Cyazofamid” (J Pestic Sci, 2004).

The structures appear in SMILES notation. Values after ≈ are worked out from the molar mass of the structure shown.

For one series, the system named is Plasmopara viticola. Nature of the series: Antimicrobial activity against Plasmopara viticola infested in grapevines. It counts as functional.
The test system of series [1] is Apis mellifera. Nature of the series: Acute toxicity in po dosed Apis mellifera (honey bee). Format: organism-based. Particulars: in vivo.
In series [2] the test system is Apis mellifera. Nature of the series: Acute toxicity in Apis mellifera (honey bee) compound administered topically. Particulars: in vivo, topical_or_ocular. Format: organism-based.
Series [3] in a line: Acute toxicity in Rattus norvegicus (rat) administered through inhalation. It counts as organism-based. Particulars: in vivo, inhaled or intranasal.
Series [4] is described as follows: Acute toxicity in po dosed Mus musculus (mouse). It counts as organism-based. To be noted: in vivo.
Series [5] concerns Selenastrum capricornutum. Kind of series: Toxicity in Selenastrum capricornutum. It counts as organism-based.
In series [6] the test system is Phytophthora infestans. Kind of series: Antimicrobial activity against Phytophthora infestans infested in potato plant. It counts as functional.
Series [7] relates to Pseudoperonospora cubensis. Nature of the series: Antimicrobial activity against Pseudoperonospora cubensis infested in cucumber plant. Format: functional.
Series [8] deals with Pseudoperonospora cubensis. Nature of the series: Antimicrobial activity against Pseudoperonospora cubensis infested in melons. Format: functional.
Series [9] in a line: Toxicity in Cyprinidae (carp fish). Format: ADME, organism-based. Particulars: in vivo.
Series [10] can be described thus: Acute toxicity in po dosed Rattus norvegicus (rat). Format: organism-based. To be noted: in vivo.
A short description of series [11]: Acute toxicity in Pheretima sieboldi. Format: organism-based. To be noted: metaphire sieboldi, in vivo.
The next series deals with Daphnia magna. Nature of the series: Toxicity in Daphnia magna. It counts as organism-based.
A short description of series [12]: Solubility of the compound in water at pH 5 at 20 degC. Format: physicochemical.
For series [13], the system named is Phytophthora infestans. Kind of series: Antimicrobial activity against Phytophthora infestans infested in tomato plant. It counts as functional.
Series [14] can be described thus: Toxicity in Oncorhynchus mykiss (rainbow trout). Particulars: in vivo. Format: organism-based.
Series [15] is described as follows: Acute toxicity in […] dosed Rattus norvegicus (rat). Format: organism-based. Particulars: in vivo.

Broadly, the LC50 is the concentration lethal to half of the exposed cells or organisms. Lower therefore signals greater toxicity. The EC50 is the concentration needed to bring the measured effect to its halfway point. Lower therefore signals an effect from little substance. The NOAEL is the highest tested level that showed no adverse finding. One may read the solubility as how much of the substance goes into solution per volume. Low readings indicate a poorly soluble substance, high ones a readily soluble substance. On to `Cc1ccc(-c2c(Cl)nc(C#N)n2S(=O)(=O)N(C)C)cc1` [Cyazofamid], for which the Activity (in the series with Plasmopara viticola; in the series with Phytophthora infestans [6]; in [7]; in [8]; in the series on Phytophthora infestans [13]) was 50 µg/mL in each case. Besides, the LD50 with Apis mellifera [1] was more than 151.7 µg; in the series on Apis mellifera [2], more than 100 µg; in series [4] it was more than 5000 mg/kg; in [10] it was more than 5000 mg/kg; in [15] it was more than 2000 mg/kg. Also, the LC50 in [3] is more than 5.5 µg/mL; in series [9] it was more than 69.6 µg/mL; in series [14], more than 100 µg/mL. For the same molecule, the figures for the EC50 (in [5]; with Daphnia magna) were 0.858 µg/mL (≈ 2.64 µM) and more than 0.198 µg/mL, respectively. In addition, in [11], the no-observed-adverse-effect level (NOAEL) is more than 1000 mg/kg. The molecule further came in with a solubility in series [12] of 0.121 µg/mL (≈ 0.373 µM).
